Laboratory results reported in ChEMBL document CHEMBL1201862, “PubChem BioAssay data set” (2004).
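Where inhibition never reached the appropriate level, the endpoint shown equals the highest concentration tested. Otherwise, values were interpolated linearly from a five-concentration, 48-hour dose response in 96-well plates. The concentration for 50% growth inhibition is given as GI50.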 The source made the active and inactive calls. Rule as the data show it: active = GI50 up to about 1.1 µM and inactive = higher.

Columns and labels:
Test in all cases: DTP human tumour cell line panel, 48 h
A498 = tested on: A498
CAKI-1 = tested on: CAKI-1
COLO 205 = tested on: COLO 205
HCT-116 = tested on: HCT-116
HOP-92 = tested on: HOP-92
HT-29 = tested on: HT-29
IGROV-1 = tested on: IGROV-1
MDA-MB-435 = tested on: MDA-MB-435
NCI-H226 = tested on: NCI-H226
NCI-H522 = tested on: NCI-H522
NCI/ADR-RES = tested on: NCI/ADR-RES
OVCAR-8 = tested on: OVCAR-8
SF-268 = tested on: SF-268
SF-295 = tested on: SF-295
SK-MEL-28 = tested on: SK-MEL-28
SK-MEL-2 = tested on: SK-MEL-2
SK-OV-3 = tested on: SK-OV-3
T47D = tested on: T47D
UACC-257 = tested on: UACC-257
UACC-62 = tested on: UACC-62

Measured: GI50

C=CC[C@@]1(C)CCCCCCCCC[C@@](C)(CC=C)C1=O
inactive: A498 17.1 µM | CAKI-1 35.4 µM | COLO 205 19.6 µM | HCT-116 32.9 µM | HOP-92 46.8 µM | HT-29 18.7 µM | IGROV-1 31 µM | MDA-MB-435 46.9 µM | NCI-H226 23.8 µM | NCI-H522 35.2 µM | NCI/ADR-RES 32.7 µM | OVCAR-8 21.5 µM | SF-268 36.4 µM | SF-295 21.1 µM | SK-MEL-28 34.1 µM | SK-MEL-2 17.8 µM | SK-OV-3 41.1 µM | T47D 21.2 µM | UACC-257 25.2 µM | UACC-62 27.9 µM

COc1ccc(CC2c3cc(OC)c(OC)cc3CC[N+]2(C)C)cc1OC (stereo not given)
inactive: A498 > 100 µM | CAKI-1 > 100 µM | COLO 205 > 100 µM | HCT-116 > 100 µM | HOP-92 > 100 µM | HT-29 > 100 µM | IGROV-1 > 100 µM | MDA-MB-435 > 100 µM | NCI-H226 > 100 µM | NCI-H522 > 100 µM | NCI/ADR-RES > 100 µM | OVCAR-8 > 100 µM | SF-268 > 100 µM | SF-295 > 100 µM | SK-MEL-28 > 100 µM | SK-MEL-2 > 100 µM | SK-OV-3 > 100 µM | T47D > 100 µM | UACC-257 > 100 µM | UACC-62 > 100 µM

CC(C)Oc1c(N(Cc2ccccc2)c2ccccc2C2SCCCS2)c(=O)c1=O
inactive: A498 6.9 µM | CAKI-1 5.79 µM | COLO 205 3.07 µM | HCT-116 4.05 µM | HOP-92 6.81 µM | HT-29 2.52 µM | IGROV-1 3.32 µM | MDA-MB-435 2.74 µM | NCI-H226 6.05 µM | NCI-H522 1.88 µM | NCI/ADR-RES 1.75 µM | OVCAR-8 3.61 µM | SF-268 5.96 µM | SF-295 2.2 µM | SK-MEL-28 11.2 µM | SK-MEL-2 3.32 µM | SK-OV-3 3.39 µM | T47D 5.14 µM | UACC-257 6.9 µM | UACC-62 4.89 µM

ClC(Cl)(Cl)C1=N[C@H]2[C@H](Br)[C@@H]3O[C@@H](c4ccccc4)[C@H](c4ccccc4)O[C@@H]3[C@H]2O1
inactive: A498 17.2 µM | CAKI-1 16 µM | COLO 205 16.3 µM | HCT-116 18.7 µM | HOP-92 16.5 µM | HT-29 20.5 µM | IGROV-1 15.3 µM | MDA-MB-435 20.7 µM | NCI-H226 19.8 µM | NCI-H522 10.9 µM | NCI/ADR-RES 25.7 µM | OVCAR-8 17.6 µM | SF-268 18.4 µM | SF-295 17.1 µM | SK-MEL-28 20.3 µM | SK-MEL-2 16.2 µM | SK-OV-3 18.5 µM | T47D 30.2 µM | UACC-257 18.3 µM | UACC-62 16.3 µM

C[C@@H](NC(=O)Cn1c(Cl)nc2ccccc21)c1ccccc1
inactive: A498 > 100 µM | CAKI-1 > 100 µM | COLO 205 > 100 µM | HCT-116 > 100 µM | HOP-92 > 100 µM | HT-29 > 100 µM | MDA-MB-435 > 100 µM | NCI-H226 > 100 µM | NCI-H522 38.2 µM | NCI/ADR-RES 33 µM | OVCAR-8 > 100 µM | SF-268 > 100 µM | SF-295 > 100 µM | SK-MEL-28 > 100 µM | SK-MEL-2 > 100 µM | SK-OV-3 > 100 µM | T47D 36.2 µM | UACC-257 > 100 µM | UACC-62 > 100 µM

O=C1OC(c2ccccc2)N(C(=O)c2ccccc2)C1Cc1ccc(OCc2ccccc2)cc1 (stereo not given)
inactive: A498 4.67 µM | COLO 205 > 100 µM | HCT-116 > 100 µM | HOP-92 3.91 µM | IGROV-1 > 100 µM | MDA-MB-435 > 100 µM | NCI-H226 > 100 µM | NCI/ADR-RES 19.9 µM | OVCAR-8 94.8 µM | SF-268 10.1 µM | SK-MEL-28 > 100 µM | SK-MEL-2 31.1 µM | SK-OV-3 > 100 µM | T47D > 100 µM | UACC-62 8.11 µM

CCn1c(-c2cc3ccccc3cc2OC(C)=O)n[nH]c1=S
inactive: A498 25.8 µM | CAKI-1 30.8 µM | HCT-116 18.5 µM | HOP-92 58.1 µM | HT-29 30.4 µM | IGROV-1 39.6 µM | MDA-MB-435 23.3 µM | NCI-H226 38.6 µM | NCI-H522 16.1 µM | NCI/ADR-RES 21.2 µM | OVCAR-8 38.4 µM | SF-268 24.9 µM | SF-295 23.4 µM | SK-MEL-28 32.4 µM | SK-MEL-2 18.2 µM | SK-OV-3 50.7 µM | T47D 18.6 µM | UACC-257 24.2 µM

O[C@@]1(C#Cc2ccc3c(c2)OCO3)CCC[C@H]1NCc1ccccc1
inactive: A498 28.6 µM | CAKI-1 28.4 µM | COLO 205 18.3 µM | HOP-92 13.7 µM | HT-29 22.9 µM | IGROV-1 14.1 µM | MDA-MB-435 21 µM | NCI-H226 15.9 µM | NCI-H522 15.3 µM | NCI/ADR-RES 16.7 µM | OVCAR-8 22.8 µM | SF-268 36.7 µM | SF-295 19.8 µM | SK-MEL-28 17.6 µM | SK-MEL-2 16.2 µM | SK-OV-3 35.7 µM | T47D 18.7 µM | UACC-257 24.2 µM | UACC-62 16.9 µM

C[C@]12CC[C@H]3[C@@H](CC=C4C[C@@H](N5CCCC5)CC[C@@]43C)[C@@H]1C[C@H](N1CCOCC1)[C@@H]2O
inactive: A498 > 100 µM | CAKI-1 > 100 µM | COLO 205 > 100 µM | HCT-116 > 100 µM | HOP-92 > 100 µM | HT-29 44.5 µM | IGROV-1 > 100 µM | MDA-MB-435 61.2 µM | NCI-H226 > 100 µM | NCI-H522 > 100 µM | NCI/ADR-RES > 100 µM | OVCAR-8 > 100 µM | SF-268 > 100 µM | SF-295 > 100 µM | SK-MEL-28 > 100 µM | SK-OV-3 > 100 µM | T47D > 100 µM | UACC-257 > 100 µM | UACC-62 > 100 µM

O=C(NC1=NC2C=CC([N+](=O)[O-])=CC2S1)C(=O)Nn1c(S)nc2ccccc2c1=O (stereo not given)
inactive: A498 30.4 µM | CAKI-1 40.4 µM | HCT-116 79.3 µM | HOP-92 29.4 µM | HT-29 > 100 µM | IGROV-1 21 µM | MDA-MB-435 > 100 µM | NCI-H226 18.8 µM | NCI-H522 47.3 µM | NCI/ADR-RES > 100 µM | OVCAR-8 87.1 µM | SF-268 99.3 µM | SF-295 88.9 µM | SK-MEL-28 > 100 µM | SK-MEL-2 > 100 µM | SK-OV-3 63 µM | T47D 80.5 µM | UACC-257 > 100 µM | UACC-62 92 µM

CC(C)[C@H](C)/C=C/[C@@H](C)C1CC[C@H]2[C@@]34C=C[C@]5(C[C@@H](O)CC[C@]5(C)[C@H]3CC[C@]12C)OO4 (stereo not given in full)
inactive: A498 25.8 µM | CAKI-1 22.5 µM | COLO 205 31 µM | HCT-116 19.3 µM | HOP-92 32.4 µM | HT-29 23.3 µM | IGROV-1 29 µM | MDA-MB-435 29.6 µM | NCI-H226 22.2 µM | NCI/ADR-RES 19.1 µM | OVCAR-8 20.8 µM | SF-268 29.7 µM | SF-295 32.7 µM | SK-MEL-28 34 µM | SK-MEL-2 26.7 µM | SK-OV-3 54.8 µM | T47D 20.8 µM | UACC-257 > 100 µM | UACC-62 17.1 µM

OCCSCc1cc2c(O)c(c1)Cc1cc(CSCCO)cc(c1O)Cc1cc(CSCCO)cc(c1O)Cc1cc(CSCCO)cc(c1O)C2
inactive: A498 6.15 µM | CAKI-1 3.1 µM | COLO 205 2.68 µM | HCT-116 4.02 µM | HOP-92 4.26 µM | HT-29 2.88 µM | IGROV-1 3.65 µM | MDA-MB-435 2.83 µM | NCI-H226 10.4 µM | NCI-H522 2.18 µM | NCI/ADR-RES 22.2 µM | OVCAR-8 5.09 µM | SF-268 2.88 µM | SF-295 5.02 µM | SK-MEL-28 3.56 µM | SK-MEL-2 2.32 µM | SK-OV-3 8.47 µM | T47D 6.47 µM | UACC-257 4.23 µM

CCOC(=O)CCC(NC(=O)c1ccc(NCc2ccc3nc(-c4ccccc4)c(Cl)nc3c2)c2ccccc12)C(=O)OCC (stereo not given)
inactive: A498 > 100 µM | CAKI-1 > 100 µM | COLO 205 > 100 µM | HCT-116 > 100 µM | HOP-92 > 100 µM | HT-29 > 100 µM | MDA-MB-435 > 100 µM | NCI-H226 > 100 µM | NCI-H522 50.9 µM | NCI/ADR-RES > 100 µM | OVCAR-8 > 100 µM | SF-268 > 100 µM | SF-295 > 100 µM | SK-MEL-28 > 100 µM | SK-MEL-2 72.9 µM | SK-OV-3 > 100 µM | T47D 13.9 µM | UACC-257 16.2 µM | UACC-62 > 100 µM

CCOC(=O)C1=C(OS(=O)(=O)C(F)(F)F)CCCC1
inactive: A498 > 100 µM | CAKI-1 > 100 µM | COLO 205 > 100 µM | HOP-92 > 100 µM | HT-29 > 100 µM | IGROV-1 > 100 µM | MDA-MB-435 > 100 µM | NCI-H226 > 100 µM | NCI-H522 > 100 µM | NCI/ADR-RES > 100 µM | OVCAR-8 > 100 µM | SF-268 > 100 µM | SF-295 > 100 µM | SK-MEL-28 > 100 µM | SK-MEL-2 > 100 µM | SK-OV-3 > 100 µM | T47D > 100 µM | UACC-257 > 100 µM | UACC-62 > 100 µM
